Experiments:
[1] = system: late watergrass; assay: Test Example 1: herbicidal activity, application before weed generation under submerged conditions (Table 16, symbol A); type: in vivo, late watergrass (Echinochloa oryzicola); details: 320 g/ha applied herbicide
How it was run: (§1)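 Alluvial soil was flooded to 4 cm depth, weed seeds were sown mixed and 2.5-leaf rice seedlings were transplanted. On sowing day, the compound's emulsion, diluted in water to a set dose, was applied to the water surface. Plants grew at 25–30 °C and were scored 0–5 after three weeks.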

[2] = system: Japanese bulrush; assay: Test Example 1: herbicidal activity, application before weed generation under submerged conditions (Table 16, symbol B); type: in vivo, Japanese bulrush (Schoenoplectus juncoides); details: 320 g/ha applied herbicide
How it was run: as §1

[3] = system: oval-leafed pondweed; assay: Test Example 1: herbicidal activity, application before weed generation under submerged conditions (Table 16, symbol C); type: in vivo, oval-leafed pondweed (Monochoria vaginalis); details: 320 g/ha applied herbicide
How it was run: as §1

[4] = system: barnyard grass; assay: Test Example 3: herbicidal effect by foliage application, Wagner pot (Table 18, symbol H); type: in vivo, barnyard grass (Echinochloa crus-galli); details: 320 g/ha
How it was run: (§2)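 Plants were sown in alluvial soil held under 0.1–0.5 cm standing water and grown 14 days in a greenhouse at 25–30 °C. An emulsifiable formulation, water-diluted to the set dose, was then sprayed onto the foliage, and effects were scored three weeks later using previously defined criteria.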

[5] = system: Chinese sprangletop; assay: Test Example 3: herbicidal effect by foliage application, Wagner pot (Table 18, symbol D); type: in vivo, chinese sprangletop (Leptochloa chinensis); details: 320 g/ha
How it was run: as §2

[6] = system: rice flat sedge; assay: Test Example 3: herbicidal effect by foliage application, Wagner pot (Table 18, symbol E); type: in vivo, rice flat sedge (Cyperus iria); details: 320 g/ha
How it was run: as §2

[7] = system: southern crabgrass; assay: Test Example 4: herbicidal effect by soil treatment (Table 19, symbol F); type: in vivo, southern crabgrass (Digitaria ciliaris)
How it was run: (§3)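 Pre-emergence style soil spray: seeds under ~1.5 cm sterilized diluvial soil received a uniform coat of emulsion diluted to the predetermined herbicide amount. Greenhouse 25–30° C; readout at week three on previously defined criteria.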

[8] = system: green foxtail; assay: Test Example 4: herbicidal effect by soil treatment (Table 19, symbol G); type: in vivo, green foxtail (Setaria viridis)
How it was run: as §3

[9] = system: barnyard grass; assay: Test Example 4: herbicidal effect by soil treatment (Table 19, symbol H); type: in vivo, barnyard grass (Echinochloa crus-galli)
How it was run: as §3

[10] = system: wild oat; assay: Test Example 4: herbicidal effect by soil treatment (Table 19, symbol I); type: in vivo, wild oat (Avena fatua)
How it was run: as §3

[11] = system: blackgrass; assay: Test Example 4: herbicidal effect by soil treatment (Table 19, symbol J); type: in vivo, blackgrass (Alopecurus myosuroides)
How it was run: as §3

[12] = system: Italian ryegrass; assay: Test Example 4: herbicidal effect by soil treatment (Table 19, symbol K); type: in vivo, Italian ryegrass (Lolium multiflorum)
How it was run: as §3

[13] = system: windgrass; assay: Test Example 4: herbicidal effect by soil treatment (Table 19, symbol L); type: in vivo, windgrass (Apera spica-venti)
How it was run: as §3

[14] = system: velvetleaf; assay: Test Example 4: herbicidal effect by soil treatment (Table 19, symbol M); type: in vivo, velvetleaf (Abutilon theophrasti)
How it was run: as §3

[15] = system: redroot pigweed; assay: Test Example 4: herbicidal effect by soil treatment (Table 19, symbol N); type: in vivo, redroot pigweed (Amaranthus retroflexus)
How it was run: as §3

[16] = system: lambsquarters; assay: Test Example 4: herbicidal effect by soil treatment (Table 19, symbol O); type: in vivo, lambsquarters (Chenopodium album)
How it was run: as §3

[17] = system: chickweed; assay: Test Example 4: herbicidal effect by soil treatment (Table 19, symbol P); type: in vivo, common chickweed (Stellaria media)
How it was run: as §3

[18] = system: persian speedwell; assay: Test Example 4: herbicidal effect by soil treatment (Table 19, symbol R); type: in vivo, Persian speedwell (Veronica persica)
How it was run: as §3

[19] = system: southern crabgrass; assay: Test Example 5: herbicidal effect by foliage application, plastic box (Table 20, symbol F); type: in vivo, southern crabgrass (Digitaria ciliaris); details: foliage application, 320 g/ha, 3 weeks after application
How it was run: (§4)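 Plants were sown into sterilized diluvial soil under about 1.5 cm cover and kept in a greenhouse at 25° C. to 30° C. Fourteen days on, foliage received an even spray of the diluted emulsion. Herbicidal or crop effect was judged three weeks afterwards.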

[20] = system: green foxtail; assay: Test Example 5: herbicidal effect by foliage application, plastic box (Table 20, symbol G); type: in vivo, green foxtail (Setaria viridis); details: foliage application, 320 g/ha, 3 weeks after application
How it was run: as §4

[21] = system: barnyard grass; assay: Test Example 5: herbicidal effect by foliage application, plastic box (Table 20, symbol H); type: in vivo, barnyard grass (Echinochloa crus-galli); details: foliage application, 320 g/ha, 3 weeks after application
How it was run: as §4

[22] = system: wild oat; assay: Test Example 5: herbicidal effect by foliage application, plastic box (Table 20, symbol I); type: in vivo, wild oat (Avena fatua); details: foliage application, 320 g/ha, 3 weeks after application
How it was run: as §4

[23] = system: blackgrass; assay: Test Example 5: herbicidal effect by foliage application, plastic box (Table 20, symbol J); type: in vivo, blackgrass (Alopecurus myosuroides); details: foliage application, 320 g/ha, 3 weeks after application
How it was run: as §4

[24] = system: Italian ryegrass; assay: Test Example 5: herbicidal effect by foliage application, plastic box (Table 20, symbol K); type: in vivo, Italian ryegrass (Lolium multiflorum); details: foliage application, 320 g/ha, 3 weeks after application
How it was run: as §4

[25] = system: windgrass; assay: Test Example 5: herbicidal effect by foliage application, plastic box (Table 20, symbol L); type: in vivo, windgrass (Apera spica-venti); details: foliage application, 320 g/ha, 3 weeks after application
How it was run: as §4

[26] = system: velvetleaf; assay: Test Example 5: herbicidal effect by foliage application, plastic box (Table 20, symbol M); type: in vivo, velvetleaf (Abutilon theophrasti); details: foliage application, 320 g/ha, 3 weeks after application
How it was run: as §4

[27] = system: lambsquarters; assay: Test Example 5: herbicidal effect by foliage application, plastic box (Table 20, symbol O); type: in vivo, lambsquarters (Chenopodium album); details: foliage application, 320 g/ha, 3 weeks after application
How it was run: as §4

[28] = system: persian speedwell; assay: Test Example 5: herbicidal effect by foliage application, plastic box (Table 20, symbol R); type: in vivo, Persian speedwell (Veronica persica); details: foliage application, 320 g/ha, 3 weeks after application
How it was run: as §4

Row | Structure (SMILES) | Herbicidal effect on A: late watergrass (grade 0-5) [1] | Herbicidal effect on B: Japanese bulrush (grade 0-5) [2] | Herbicidal effect on C: oval-leafed pondweed (grade 0-5) [3] | herbicidal effect on H (barnyard grass), rating 0-5 [4] | herbicidal effect on D (Chinese sprangletop), rating 0-5 [5] | herbicidal effect on E (rice flat sedge), rating 0-5 [6] | effect on southern crabgrass (F) [19] | effect on green foxtail (G) [20] | effect on barnyard grass (H) [21] | effect on wild oat (I) [22] | effect on blackgrass (J) [23] | effect on Italian ryegrass (K) [24] | effect on windgrass (L) [25] | effect on velvetleaf (M) [26] | effect on lambsquarters (O) [27] | effect on persian speedwell (R) [28] | further results
1 | Cc1nn(C)c(=O)c(-c2c(-c3ccc(OC(C)C#N)cc3)sc3ccccc23)c1O (racemic) [1-236] | 3 (Herbicidal rate of 40% or more and less than 70%) | 0 (Herbicidal rate of 5% or less (almost no effect)) | 0 (Herbicidal rate of 5% or less (almost no effect)) | 5 (Herbicidal rate of 90% or more (almost completely withered)) | 5 (Herbicidal rate of 90% or more (almost completely withered)) | 5 (Herbicidal rate of 90% or more (almost completely withered)) | 4 (Herbicidal rate of 70% or more and less than 90%) | 4 (Herbicidal rate of 70% or more and less than 90%) | 5 (Herbicidal rate of 90% or more (almost completely withered)) | 5 (Herbicidal rate of 90% or more (almost completely withered)) | 4 (Herbicidal rate of 70% or more and less than 90%) | 5 (Herbicidal rate of 90% or more (almost completely withered)) | 0 (Herbicidal rate of 5% or less (almost no effect)) | 5 (Herbicidal rate of 90% or more (almost completely withered)) | 5 (Herbicidal rate of 90% or more (almost completely withered)) | 5 (Herbicidal rate of 90% or more (almost completely withered)) | F: southern crabgrass, herbicidal effect rating ([7]; AAH 320 g/ha): 4 (Herbicidal rate of 70% or more and less than 90%); G: green foxtail, herbicidal effect rating ([8]; AAH 320 g/ha): 4 (Herbicidal rate of 70% or more and less than 90%); H: barnyard grass, herbicidal effect rating ([9]; AAH 320 g/ha): 5 (Herbicidal rate of 90% or more (almost completely withered)); I: wild oat, herbicidal effect rating ([10]; AAH 320 g/ha): 0 (Herbicidal rate of 5% or less (almost no effect)); J: blackgrass, herbicidal effect rating ([11]; AAH 320 g/ha): 0 (Herbicidal rate of 5% or less (almost no effect)); K: Italian ryegrass, herbicidal effect rating ([12]; AAH 320 g/ha): 3 (Herbicidal rate of 40% or more and less than 70%); L: windgrass, herbicidal effect rating ([13]; AAH 320 g/ha): 0 (Herbicidal rate of 5% or less (almost no effect)); M: velvetleaf, herbicidal effect rating ([14]; AAH 320 g/ha): 1 (Herbicidal rate of 5% or more and less than 20%); N: redroot pigweed, herbicidal effect rating ([15]; AAH 320 g/ha): 5 (Herbicidal rate of 90% or more (almost completely withered)); O: lambsquarters, herbicidal effect rating ([16]; AAH 320 g/ha): 4 (Herbicidal rate of 70% or more and less than 90%); P: chickweed, herbicidal effect rating ([17]; AAH 320 g/ha): 4 (Herbicidal rate of 70% or more and less than 90%); R: persian speedwell, herbicidal effect rating ([18]; AAH 320 g/ha): 4 (Herbicidal rate of 70% or more and less than 90%)
2 | CCOC(=O)Oc1c(C)nn(C)c(=O)c1-c1c(-c2ccc(F)cc2)sc2ccc(F)cc12 [2-004] | 0 (Herbicidal rate of 5% or less (almost no effect)) | 2 (Herbicidal rate of 20% or more and less than 40%) | 2 (Herbicidal rate of 20% or more and less than 40%) | 5 (Herbicidal rate of 90% or more (almost completely withered)) | 3 (Herbicidal rate of 40% or more and less than 70%) | 4 (Herbicidal rate of 70% or more and less than 90%) | 4 (Herbicidal rate of 70% or more and less than 90%) | 5 (Herbicidal rate of 90% or more (almost completely withered)) | 4 (Herbicidal rate of 70% or more and less than 90%) | 0 (Herbicidal rate of 5% or less (almost no effect)) | 4 (Herbicidal rate of 70% or more and less than 90%) | 5 (Herbicidal rate of 90% or more (almost completely withered)) | 3 (Herbicidal rate of 40% or more and less than 70%) | 5 (Herbicidal rate of 90% or more (almost completely withered)) | 3 (Herbicidal rate of 40% or more and less than 70%) | 5 (Herbicidal rate of 90% or more (almost completely withered)) | herbicidal effect rating, F: southern crabgrass ([7]; 320 g/ha): 4 (Herbicidal rate of 70% or more and less than 90%); herbicidal effect rating, G: green foxtail ([8]; 320 g/ha): 5 (Herbicidal rate of 90% or more (almost completely withered)); herbicidal effect rating, H: barnyard grass ([9]; 320 g/ha): 4 (Herbicidal rate of 70% or more and less than 90%); herbicidal effect rating, I: wild oat ([10]; 320 g/ha): 0 (Herbicidal rate of 5% or less (almost no effect)); herbicidal effect rating, J: blackgrass ([11]; 320 g/ha): 0 (Herbicidal rate of 5% or less (almost no effect)); herbicidal effect rating, K: Italian ryegrass ([12]; 320 g/ha): 5 (Herbicidal rate of 90% or more (almost completely withered)); herbicidal effect rating, L: windgrass ([13]; 320 g/ha): 0 (Herbicidal rate of 5% or less (almost no effect)); herbicidal effect rating, M: velvetleaf ([14]; 320 g/ha): 3 (Herbicidal rate of 40% or more and less than 70%); herbicidal effect rating, N: redroot pigweed ([15]; 320 g/ha): 5 (Herbicidal rate of 90% or more (almost completely withered)); herbicidal effect rating, O: lambsquarters ([16]; 320 g/ha): 5 (Herbicidal rate of 90% or more (almost completely withered)); herbicidal effect rating, P: chickweed ([17]; 320 g/ha): 5 (Herbicidal rate of 90% or more (almost completely withered)); herbicidal effect rating, R: persian speedwell ([18]; 320 g/ha): 1 (Herbicidal rate of 5% or more and less than 20%)

Reference: patent US20230085307A1, “PYRIDAZINONE COMPOUND AND HERBICIDE” (NISSAN CHEMICAL CORPORATION, priority 2019, published 2023)
